Reference: patent publication US7256172B1, “Method of treatment and agents useful for same” (The University of Melbourne, priority 1998, dated 2007)
Read-outs that look alike come from different tables or passages of the source. No end group written: not given here.

How the values were obtained:
[1] = system: guinea-pig isolated bronchi
Excerpt: (§1) The right and left main bronchi and their first order branches of specific pathogenfree (SPF) Balb/c mice (15–20 g; either sex), Hartley tricolour guinea-pigs (300–400 g; male) and Sprague-Dawley rats (200–350 g; either sex), all killed by either cervical dislocation or overdosed (i.p.) with sodium pentobarbitone, were cleared of surrounding connective tissue, nerves and blood vessels under a dissecting microscope and placed in cold, carbogenated (95% v/v O2,5% v/v CO2) Krebs solution (Kemp and Cocks, 1997). Human airway preparations (0.5–1 mm in external diameter) were dissected from lungs of cancer patients undergoing thoracotomy at The Royal Melbourne Hospital, Melbourne, Australia. The epithelium was removed from some bronchi either by mechanical abrasion of the luminal surface (guinea-pig) or by brief, gentle intraliminal flushing of the airways with Krebs containing 0.1% v/v Triton-X100 (mouse and rat). In each case, removal of the epithelium was verified histologically in 8 μm formalin-fixed, paraffin sections stained with haemotoxylin and eosin. Ring segments (approximately 2 mm long) of bronchi and bronchioles were mounted in Krebs (37° C.) on stainless steel wires (40 μm) in dual channel (5 ml) Mulvany-Halpern myographs (JP Trading, Aarhus, Denmark) to record changes in isometric force (Kemp and Cocks, 1997). After equilibration at a passive force between 0.2 g and 0.3 g, tissues were contracted to their maximum levels of active force (Fm.),) with acetylcholine (30 μM), thoroughly washed with Krebs and allowed to return to baseline. Various drugs or their vehicles were then added and 30 min later all tissues were contracted to approximately 40% Fmax with titrated concentrations of carbachol (10–500 nM). The L-type voltage-operated Ca^2+ channel inhibitor, nifedipine (0.3 μM) was added to all mouse and rat tissues after obtaining Fmax to control characteristic phasic contractile activity with carbachol.
(§2) Mouse bronchus preparations were carefully mounted horizontally on fine (40 μm) stainless steel wires attached to the jaws of a Mulvany-Halpem myograph. After 60 min at 37° C., all rings were stretched to 0.5 g passive force, which had been determined in preliminary experiments to be optimal, and allowed to recover from that stretch for a further 30 min. Maximum contraction (Fmax) in each tissue was then determined with exogenously applied acetylcholine (ACh; 30 μM) followed by washout. A further 30 min equilibration time was allowed before the tissues were actively contracted to between 20% and 60% of their individual Fm.” values with titrated concentrations of carbachol (10–100 nM).

rat isolated bronchi = system: rat isolated bronchi
Excerpt: as §1
(§3) All cumulative responses (relaxations and contractions) were normalised as percentages of the initial level of active force to carbachol. Results are presented as mean±s.e mean and pEC50 (sensitivity) values were calculated by fitting concentration-response curves to a four parameter logistic function (Kemp and Cocks, 1997) using Graphpad Prism (version 2.0). Statistical comparison of mean pEC50 and maximum response (Rmax) values were compared by two-tailed unpaired Student's t-tests or one way analysis of variance (ANOVA) with Tukey-Kramer's t-tests for multiple comparisons. P<0.05 was accepted as significant. Unless specified, all averaged data are from n>5 experiments.

[2] = system: first generation branches of the mouse main bronchi; details: mouse bronchioles
Excerpt: as §1, §3

mouse bronchial rings = details: for relaxation in presence of NO blockers: L—NOARG (100 μM) and HbO (20 μM); for response of epithelium-intact bronchi: contracted to approximately 40% Fmax with carbachol; for relaxation after removal of the epithelium: epithelium removed with 0.1% v/v Triton X-100; for response in presence of cyclooxygenase inhibitors: indomethacin (3 μM) or aspirin (100 μM); for maximum relaxation (Rmax) / sensitivity (pEC50): main bronchi with epithelium; for maximum relaxation (Rmax): % of initial force to carbachol; for sensitivity (pEC50): contracted with carbachol; for response after desensitisation to thrombin: post-thrombin; for response after desensitisation to trypsin: post-trypsin
Excerpt: as §1
If no response occurred the tissues were then exposed to cumulative concentrations of either SLIGRL—NH2 (SEQ ID NO:2) or SFLLRN—NH2 (SEQ ID NO:1) (0.1–30 μM).
as §3, with “Results” for “All cumulative responses (relaxations and contractions) were normalised as percentages of the initial level of active force to carbachol. Results”
as §2, with “nM). […] In some cases, tissues were treated with a range of drugs prior to contraction to approximately […] Fmax. These included the cyclooxygenase inhibitors indomethacin and aspirin, the nitric oxide (NO) synthase inhibitor N′-nitro-L-(L-NOARG), the NO scavenger oxyhaemoglobin (Hb0), and the L-voltage-operated Cat' channel inhibitor nifedipine.” for “nM).”
After an initial passive stretch to 0.5 g (Ti) and recovery, each ring was contracted with acetylcholine (Ach; 30 μM). The contraction was taken as the tissue maximum and referred to as Fmax.

[3] = system: isolated human bronchioles
Experimental: Small (500 μm) bronchioles were carefully dissected from discarded sections of human left lung which had been excised at surgery from two male lung cancer patients (Royal Melbourne Hospital, Melbourne, Australia).
Dissection of these bronchioles required a fine-dissecting microscope and an assistant to continually flood the preparation with cold oxygenated Krebs solution to remove air bubbles and keep the tissue viable. Bronchioles approximately 2 mm in length were then mounted on […] diameter stainless wires in a Krebs solution-filled myograph chamber, as described for the mouse bronchus preparation above.

rat gastric fundus = details: mucosa intact, contracted with acetylcholine
Excerpt: Longitudinal strips of gastric fundus from male Sprague-Dawley rats were suspended under 1 g passive isometric tension in Krebs solution.

monkey small bronchi = system: monkey small bronchi
Excerpt: The experimental details are similar to those for the mouse isolated bronchi. Briefly, approximately 2 mm long rings of small bronchi were mounted on wire hooks. In each trace, half log concentrations are not depicted for clarity.

[4] = system: human coronary artery rings
[5] = desensitized to both thrombin and trypsin

## SFLLRN [SFLLRN—NH2]
[1]
  response of epithelium-intact rings: only caused concentration-dependent contractions
Rat isolated bronchi
  response of rat bronchial rings: only caused a contraction
[2]
  maximum relaxation (Rmax): 58±10%
  sensitivity (pEC50): 5.5±0.02
Mouse bronchial rings
  relaxation in presence of NO blockers: unaffected
  response of epithelium-intact bronchi: powerful concentration dependent relaxations
  relaxation after removal of the epithelium: abolished
  response in presence of cyclooxygenase inhibitors: converted to concentration-dependent contractions
  maximum relaxation (Rmax): 76±11%
  sensitivity (pEC50): 5.6±0.1 −log M
  response after desensitisation to thrombin: abolished
  response after desensitisation to trypsin: abolished
[3]
  response of human bronchioles: relaxed the bronchioles
[3]; contracted to approximately 30% Fmax with carbachol
  maximum relaxation relative to isoprenaline plus IBMX: approximately 30%
Rat gastric fundus
  response of rat gastric fundus: relaxation
Monkey small bronchi
  effect on monkey small bronchi: smooth muscle relaxing effects
[4]; [5]
  Rmax after desensitisation: 92.0±5.0%
  pEC50 after desensitisation: 6.4±0.2
[4]; endothelium-denuded
  relaxation after removal of the endothelium: abolished
[4]; endothelium-intact, control
  maximum (Rmax % contraction reversal): 95.2±1.3%
  pEC50: 6.9±0.1 −log M
[4]; untreated, n=8
  pEC50, untreated control of desensitisation experiment: 7.0±0.1

## SLIGRL-NH2 [SLIGRL—NH2]
[1]
  response of epithelium-intact rings: Concentration dependent relaxations to PAR2-AP were observed in six out of thirteen bronchial rings
[1]; epithelium-denuded
  response of epithelium-denuded rings: either caused a small contraction or no response
[1]; guinea-pig bronchi
  Rmax: 31±5%
  pEC50: 5.4±0.2
Rat isolated bronchi; rat bronchi
  Rmax: 56±5%
  pEC50: 5.5±0.1
[2]
  maximum relaxation (Rmax): 58±4%
  sensitivity (pEC50): 5.1±0.05
Mouse bronchial rings
  relaxation in presence of NO blockers: unaffected
  response of epithelium-intact bronchi: powerful concentration dependent relaxations
  relaxation after removal of the epithelium: abolished
  response in presence of cyclooxygenase inhibitors: abolished
  maximum relaxation (Rmax): 94±3%
  sensitivity (pEC50): 5.6±0.1 −log M
  response after desensitisation to thrombin: unaffected
  response after desensitisation to trypsin: abolished
Mouse bronchial rings; listed as PAR2-AP
  response after desensitisation to trypsin: virtually abolished
[3]
  response of human bronchioles: appeared to cause some contraction, but this was most likely baseline drift
Rat gastric fundus
  response of rat gastric fundus: relaxation
[4]; endothelium-intact
  relaxation: no relaxation
